Measured values published in ChEMBL document CHEMBL5390204, “Persephacin Is a Broad-Spectrum Antifungal Aureobasidin Metabolite That Overcomes Intrinsic Resistance in Aspergillus fumigatus” (J Nat Prod, 2023).
In brackets after ≈: the same amount, converted by molar mass.

Tests used:
Saccharomyces cerevisiae = experiment: Antifungal activity against multidrug-resistant Saccharomyces cerevisiae 399 assessed as inhibition in fungal growth incubated for 48 hrs by microplate reader analysis; assay type: functional
Clavispora lusitaniae = experiment: Antifungal activity against multidrug-resistant Candida lusitaniae 398 assessed as inhibition in fungal growth incubated for 48 hrs by microplate reader analysis; assay type: functional
Candida duobushaemulonii [1] = experiment: Antifungal activity against multidrug-resistant Candida duobushaemulonii 394 assessed as inhibition in fungal growth incubated for 48 hrs by microplate reader analysis; assay type: functional; conditions: Candidozyma duobushaemuli
Candida duobushaemulonii [2] = experiment: Antifungal activity against multidrug-resistant Candida duobushaemulonii 392 assessed as inhibition in fungal growth incubated for 48 hrs by microplate reader analysis; assay type: functional; conditions: Candidozyma duobushaemuli
[Candida] auris [3] = Antifungal activity against multidrug-resistant Candida auris 390 assessed as inhibition in fungal growth incubated for 48 hrs by microplate reader analysis; assay type: functional; conditions: Candidozyma auris
[Candida] auris [4] = Antifungal activity against multidrug-resistant Candida auris 388 assessed as inhibition in fungal growth incubated for 48 hrs by microplate reader analysis; assay type: functional; conditions: Candidozyma auris
[Candida] auris [5] = Antifungal activity against multidrug-resistant Candida auris 387 assessed as inhibition in fungal growth incubated for 48 hrs by microplate reader analysis; assay type: functional; conditions: Candidozyma auris
[Candida] auris [6] = Antifungal activity against multidrug-resistant Candida auris 384 assessed as inhibition in fungal growth incubated for 48 hrs by microplate reader analysis; assay type: functional; conditions: Candidozyma auris
[Candida] auris [7] = Antifungal activity against multidrug-resistant Candida auris 382 assessed as inhibition in fungal growth incubated for 48 hrs by microplate reader analysis; assay type: functional; conditions: Candidozyma auris
Kluyveromyces marxianus = experiment: Antifungal activity against Candida kefyr 12 assessed as inhibition in fungal growth incubated for 48 hrs by microplate reader analysis; assay type: functional
Candida albicans [8] = experiment: Antifungal activity against Candida albicans 1 assessed as inhibition in fungal growth incubated for 48 hrs by microplate reader analysis; assay type: functional
Candida albicans [9] = experiment: Antifungal activity against Candida albicans 10 assessed as inhibition in fungal growth incubated for 48 hrs by microplate reader analysis; assay type: functional
Candida albicans [10] = experiment: Antifungal activity against Candida albicans 21 assessed as inhibition in fungal growth incubated for 48 hrs by microplate reader analysis; assay type: functional
Candida albicans [11] = experiment: Antifungal activity against Candida albicans 24 assessed as inhibition in fungal growth incubated for 48 hrs by microplate reader analysis; assay type: functional
Candida albicans [12] = experiment: Antifungal activity against Candida albicans 30 assessed as inhibition in fungal growth incubated for 48 hrs by microplate reader analysis; assay type: functional
Candida parapsilosis [13] = experiment: Antifungal activity against Candida parapsilosis 7 assessed as inhibition in fungal growth incubated for 48 hrs by microplate reader analysis; assay type: functional; conditions: Lodderomyces parapsilosis
Candida parapsilosis [14] = experiment: Antifungal activity against Candida parapsilosis 9 assessed as inhibition in fungal growth incubated for 48 hrs by microplate reader analysis; assay type: functional; conditions: Lodderomyces parapsilosis
Candida parapsilosis [15] = experiment: Antifungal activity against Candida parapsilosis 15 assessed as inhibition in fungal growth incubated for 48 hrs by microplate reader analysis; assay type: functional; conditions: Lodderomyces parapsilosis
Candida parapsilosis [16] = experiment: Antifungal activity against Candida parapsilosis 18 assessed as inhibition in fungal growth incubated for 48 hrs by microplate reader analysis; assay type: functional; conditions: Lodderomyces parapsilosis
Candida parapsilosis [17] = experiment: Antifungal activity against Candida parapsilosis 23 assessed as inhibition in fungal growth incubated for 48 hrs by microplate reader analysis; assay type: functional; conditions: Lodderomyces parapsilosis
Aspergillus fumigatus [18] = experiment: Antifungal activity against Aspergillus fumigatus MYA 3627 assessed as reduction in fungal growth incubated for 48 hrs by microplate reader analysis; assay type: functional
Aspergillus fumigatus [19] = experiment: Antifungal activity against Aspergillus fumigatus NRRL6113 assessed as reduction in fungal growth incubated for 48 hrs by microplate reader analysis; assay type: functional
Aspergillus niger = experiment: Antifungal activity against Aspergillus niger FGSC A732 assessed as reduction in fungal growth incubated for 48 hrs by microplate reader analysis; assay type: functional
Rhizopus arrhizus = experiment: Antifungal activity against Rhizopus oryzae FGSC 9543 assessed as reduction in fungal growth incubated for 48 hrs by microplate reader analysis; assay type: functional
Mucor circinelloides [20] = experiment: Antifungal activity against Mucor circinelloides 235C7 assessed as reduction in fungal growth incubated for 48 hrs by microplate reader analysis; assay type: functional
Fusarium solani = experiment: Antifungal activity against Fusarium solani 243G2 assessed as reduction in fungal growth incubated for 48 hrs by microplate reader analysis; assay type: functional
Hamigera insecticola [21] = experiment: Antifungal activity against Hamigera insecticola NRRL35442 assessed as reduction in fungal growth incubated for 48 hrs by microplate reader analysis; assay type: functional
Candida albicans [22] = experiment: Antifungal activity against Candida albicans SC5314 assessed as inhibition in fungal growth incubated for 48 hrs in presence of 0% serum by microplate reader analysis; assay type: functional
Candida albicans [23] = experiment: Antifungal activity against Candida albicans SC5314 assessed as inhibition in fungal growth incubated for 48 hrs in presence of 10% serum by microplate reader analysis; assay type: functional
[Candida] auris [24] = Antifungal activity against multidrug-resistant Candida auris 381 assessed as inhibition in fungal growth incubated for 48 hrs in presence of 5% serum by microplate reader analysis; assay type: functional; conditions: Candidozyma auris
[Candida] auris [25] = Antifungal activity against multidrug-resistant Candida auris 381 assessed as inhibition in fungal growth incubated for 48 hrs in presence of 10% serum by microplate reader analysis; assay type: functional; conditions: Candidozyma auris
Cryptococcus neoformans [26] = experiment: Antifungal activity against Cryptococcus neoformans H99 assessed as inhibition in fungal growth incubated for 48 hrs in presence of 0% serum by microplate reader analysis; assay type: functional
Cryptococcus neoformans [27] = experiment: Antifungal activity against Cryptococcus neoformans H99 assessed as inhibition in fungal growth incubated for 48 hrs in presence of 5% serum by microplate reader analysis; assay type: functional
Aspergillus fumigatus [28] = experiment: Antifungal activity against Aspergillus fumigatus ATCC MYA-3627 assessed as inhibition in fungal growth incubated for 48 hrs in presence of 0% serum by microplate reader analysis; assay type: functional
Candida parapsilosis [29] = experiment: Antifungal activity against Candida parapsilosis ATCC 22019 (Y-12969) assessed as reduction in fungal viability incubated for 48 hrs by microplate reader analysis; assay type: functional
Candida tropicalis = experiment: Antifungal activity against Candida tropicalis ATCC750 (Y-12699) assessed as reduction in fungal viability incubated for 48 hrs by microplate reader analysis; assay type: functional
Cryptococcus neoformans [30] = experiment: Antifungal activity against Cryptococcus neoformans H99 assessed as reduction in fungal viability incubated for 48 hrs by microplate reader analysis; assay type: functional
Aspergillus fumigatus [31] = experiment: Antifungal activity against Aspergillus fumigatus NRRL6113 assessed as reduction in fungal viability incubated for 48 hrs by microplate reader analysis; assay type: functional
Aspergillus flavus = experiment: Antifungal activity against Aspergillus flavus NRRL485 assessed as reduction in fungal viability incubated for 48 hrs by microplate reader analysis; assay type: functional
Aspergillus terreus = experiment: Antifungal activity against Aspergillus terreus 191A6 assessed as reduction in fungal viability incubated for 48 hrs by microplate reader analysis; assay type: functional
Curvularia lunata = experiment: Antifungal activity against Curvularia lunata NRRL6409 assessed as reduction in fungal viability incubated for 48 hrs by microplate reader analysis; assay type: functional
Mucor circinelloides [32] = experiment: Antifungal activity against Mucor circinelloides 235C7 assessed as reduction in fungal viability incubated for 48 hrs by microplate reader analysis; assay type: functional
Paecilomyces lilacinus = experiment: Antifungal activity against Paecilomyces lilacinus 165E10 assessed as reduction in fungal viability incubated for 48 hrs by microplate reader analysis; assay type: functional, Purpureocillium lilacinum
Hamigera insecticola [33] = experiment: Antifungal activity against Hamigera insecticola NRRL35442 assessed as reduction in fungal viability incubated for 48 hrs by microplate reader analysis; assay type: functional

With `C[C@@H]1[C@H](O)[C@@H](C)/C=C/C=C/C=C/C=C/C=C/C=C/C=C/[C@H](O[C@@H]2O[C@H](C)[C@@H](O)[C@H](N)[C@@H]2O)C[C@@H]2O[C@](O)(C[C@@H](O)C[C@@H](O)[C@H](O)CC[C@@H](O)C[C@@H](O)CC(=O)O[C@H]1C)C[C@H](O)[C@H]2C(=O)O` [AMPHOTERICIN B] the MIC80 (Saccharomyces cerevisiae) was 2.5 µM (≈ 2.31 µg/mL), the MIC80 (Clavispora lusitaniae) was 0.6 µM (≈ 0.554 µg/mL) and the MIC80 (Candida duobushaemulonii [1]) was 5 µM (≈ 4.62 µg/mL). It also gave an MIC80 (Candida duobushaemulonii [2]) of 5 µM (≈ 4.62 µg/mL), an MIC80 ([Candida] auris [3]) of 2.5 µM (≈ 2.31 µg/mL) and an MIC80 ([Candida] auris [4]) of 2.5 µM (≈ 2.31 µg/mL). The MIC80 ([Candida] auris [5]) was 2.5 µM (≈ 2.31 µg/mL), the MIC80 ([Candida] auris [6]) was 2.5 µM (≈ 2.31 µg/mL) and the MIC80 ([Candida] auris [7]) was 1.3 µM (≈ 1.2 µg/mL). The MIC80 (Kluyveromyces marxianus) was 0.3 µM (≈ 0.277 µg/mL), the MIC80 (Candida albicans [8]) was 0.6 µM (≈ 0.554 µg/mL) and the MIC80 (Candida albicans [9]) was 0.6 µM (≈ 0.554 µg/mL). The MIC80 (Candida albicans [10]) was 0.6 µM (≈ 0.554 µg/mL), the MIC80 (Candida albicans [11]) was 1.3 µM (≈ 1.2 µg/mL) and the MIC80 (Candida albicans [12]) was 2.5 µM (≈ 2.31 µg/mL). It also gave an MIC80 (Candida parapsilosis [13]) of 2.5 µM (≈ 2.31 µg/mL), an MIC80 (Candida parapsilosis [14]) of 2.5 µM (≈ 2.31 µg/mL) and an MIC80 (Candida parapsilosis [15]) of 2.5 µM (≈ 2.31 µg/mL). It also gave an MIC80 (Candida parapsilosis [16]) of 1.3 µM (≈ 1.2 µg/mL), an MIC80 (Candida parapsilosis [17]) of 1.3 µM (≈ 1.2 µg/mL) and an MFC (Aspergillus fumigatus [18]) of 2.5 µM (≈ 2.31 µg/mL). For the same compound, the MIC80 (Aspergillus fumigatus [18]) was 2.5 µM (≈ 2.31 µg/mL), the MFC (Aspergillus fumigatus [19]) was 10 µM (≈ 9.24 µg/mL) and the MIC80 (Aspergillus fumigatus [19]) was 2.5 µM (≈ 2.31 µg/mL). It also gave an MFC (Aspergillus niger) of 2.5 µM (≈ 2.31 µg/mL), an MIC80 (Aspergillus niger) of 0.6 µM (≈ 0.554 µg/mL) and an MFC (Rhizopus arrhizus) of 0.3 µM (≈ 0.277 µg/mL). For the same compound, the MIC80 (Rhizopus arrhizus) was 0.3 µM (≈ 0.277 µg/mL), the MFC (Mucor circinelloides [20]) was 1.3 µM (≈ 1.2 µg/mL) and the MIC80 (Mucor circinelloides [20]) was 1.3 µM (≈ 1.2 µg/mL). It also gave an MFC (Fusarium solani) of 1.3 µM (≈ 1.2 µg/mL), an MIC80 (Fusarium solani) of 1.3 µM (≈ 1.2 µg/mL) and an MFC (Hamigera insecticola [21]) of 10 µM (≈ 9.24 µg/mL). The MIC80 (Hamigera insecticola [21]) was 2.5 µM (≈ 2.31 µg/mL), the MIC80 (Candida albicans [22]) was 0.6 µM and the MIC80 (Candida albicans [23]) was under 0.2 µM. The MIC80 ([Candida] auris [24]) was under 0.2 µM, the MIC80 ([Candida] auris [25]) was 0.3 µM and the MIC80 (Cryptococcus neoformans [26]) was 1.3 µM. The MIC80 (Cryptococcus neoformans [27]) was under 0.2 µM, the MIC80 (Aspergillus fumigatus [28]) was 2.5 µM and the “MFC<=99.9” value (Candida parapsilosis [29]) was 5 µM (≈ 4.62 µg/mL). The “MFC<=99.9” value (Candida tropicalis) was 2.5 µM (≈ 2.31 µg/mL), the “MFC<=99.9” value (Cryptococcus neoformans [30]) was 2.5 µM (≈ 2.31 µg/mL) and the “MFC<=99.9” value (Aspergillus fumigatus [31]) was 10 µM (≈ 9.24 µg/mL). The “MFC<=99.9” value (Aspergillus flavus) was 10 µM (≈ 9.24 µg/mL), the “MFC<=99.9” value (Aspergillus terreus) was 10 µM (≈ 9.24 µg/mL) and the “MFC<=99.9” value (Curvularia lunata) was 2.5 µM (≈ 2.31 µg/mL). For the same compound, the “MFC<=99.9” value (Mucor circinelloides [32]) was 1.3 µM (≈ 1.2 µg/mL), the “MFC<=99.9” value (Paecilomyces lilacinus) was over 10 µM and the “MFC<=99.9” value (Hamigera insecticola [33]) was 10 µM (≈ 9.24 µg/mL).
